Reference: PubChem BioAssay (NCI)
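Tested at 5 concentrations; 48 h exposure; 96-well plates; endpoints linearly interpolated, else capped at highest concentration. At the TGI there is no net growth.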

What was measured:
Test in all cases: NCI tumour cell line growth inhibition, 48 h
[1] = tested on: IGROV1 ovarian
[2] = tested on: SK-MEL-28 melanoma
[3] = tested on: MOLT-4 leukemia
[4] = tested on: HCT-116 colon
[5] = tested on: UO-31 renal
[6] = tested on: KM12 colon
[7] = tested on: PC-3 prostate
[8] = tested on: M14 melanoma
[9] = tested on: OVCAR-4 ovarian
[10] = tested on: SNB-75 CNS
[11] = tested on: NCI-H460 lung
[12] = tested on: COLO 205 colon
[13] = tested on: EKVX NSCLC
[14] = tested on: SK-MEL-5 melanoma
[15] = tested on: OVCAR-5 ovarian
[16] = tested on: SF-539 CNS
[17] = tested on: SF-268 CNS
[18] = tested on: CCRF-CEM leukemia
[19] = tested on: SK-OV-3 ovarian
[20] = tested on: OVCAR-8 ovarian
[21] = tested on: NCI-H522 lung
[22] = tested on: A549 NSCLC
[23] = tested on: HOP-62 NSCLC
[24] = tested on: SNB-19 CNS
[25] = tested on: NCI-H226 lung
[26] = tested on: A498 renal
[27] = tested on: RXF 393 renal
[28] = tested on: LOX IMVI melanoma
[29] = tested on: CAKI-1 renal
[30] = tested on: OVCAR-3 ovarian
[31] = tested on: UACC-62 melanoma
[32] = tested on: 786-0 renal
[33] = tested on: MDA-MB-435
[34] = tested on: SF-295 CNS
[35] = tested on: ACHN renal
[36] = tested on: HT29 colon
[37] = tested on: SR leukemia
[38] = tested on: HCC-2998 colon
[39] = tested on: U251 CNS
[40] = tested on: UACC-257 melanoma
[41] = tested on: T-47D breast
[42] = tested on: MDA-N
[43] = tested on: HS 578T breast
[44] = tested on: SN12C renal
[45] = tested on: MDA-MB-231 breast
[46] = tested on: TK-10 renal
[47] = tested on: HCT-15 colon
[48] = tested on: MCF7 breast
[49] = tested on: MALME-3M melanoma
[50] = tested on: BT-549 breast
[51] = tested on: HOP-92 NSCLC
[52] = tested on: NCI-H23 lung
[53] = tested on: SW-620 colon
[54] = tested on: K-562 leukemia
[55] = tested on: SK-MEL-2 melanoma
[56] = tested on: DU-145 prostate
[57] = tested on: RPMI-8226 leukemia
[58] = tested on: NCI/ADR-RES ovarian
[59] = tested on: HL-60(TB) leukemia

CCCCCCCCCCCCCCCCCCNc1nc(=O)n(C2CC(O)C(COP(=O)(O)OCC3OC(n4ccc(N)nc4=O)C(O)C3O)O2)cc1F (stereo not drawn)
TGI [1]: > 100 µM
TGI [2]: > 100 µM
TGI [3]: > 100 µM
TGI [4]: > 100 µM
TGI [5]: > 100 µM
TGI [6]: > 100 µM
TGI [7]: > 100 µM
TGI [8]: > 100 µM
TGI [9]: > 100 µM
TGI [10]: > 100 µM
TGI [11]: > 100 µM
TGI [12]: > 100 µM
TGI [13]: > 100 µM
TGI [14]: > 100 µM
TGI [15]: > 100 µM
TGI [16]: > 100 µM
TGI [17]: > 100 µM
TGI [18]: > 100 µM
TGI [19]: > 100 µM
TGI [20]: 23 µM
TGI [21]: 65.3 µM
TGI [22]: > 100 µM
TGI [23]: > 100 µM
TGI [24]: > 100 µM
TGI [25]: > 100 µM
TGI [26]: > 100 µM
TGI [27]: > 100 µM
TGI [28]: 22.3 µM
TGI [29]: > 100 µM
TGI [30]: > 100 µM
TGI [31]: > 100 µM
TGI [32]: > 100 µM
TGI [33]: > 100 µM
TGI [34]: > 100 µM
TGI [35]: > 100 µM
TGI [36]: 29.2 µM
TGI [37]: > 100 µM
TGI [38]: > 100 µM
TGI [39]: > 100 µM
TGI [40]: > 100 µM
TGI [41]: > 100 µM
TGI [42]: > 100 µM
TGI [43]: > 100 µM
TGI [44]: > 100 µM
TGI [45]: 72.5 µM
TGI [46]: > 100 µM
TGI [47]: 38 µM
TGI [48]: > 100 µM
TGI [49]: > 100 µM
TGI [50]: > 100 µM
TGI [51]: > 100 µM
TGI [52]: > 100 µM
TGI [53]: > 100 µM
TGI [54]: > 100 µM
TGI [55]: > 100 µM
TGI [56]: > 100 µM
TGI [57]: > 100 µM
TGI [58]: > 100 µM

COC(=O)C(COC(=O)/C=C/c1ccc(OC(C)=O)c(OC(C)=O)c1)NC(=O)/C=C/c1ccc(OC(C)=O)c(OC(C)=O)c1 (stereo not drawn)
TGI [1]: > 100 µM
TGI [2]: 81.7 µM
TGI [59]: > 100 µM
TGI [3]: > 100 µM
TGI [4]: 42.6 µM
TGI [6]: 38.8 µM
TGI [7]: 32.6 µM
TGI [8]: 39.5 µM
TGI [9]: 62.8 µM
TGI [10]: > 100 µM
TGI [11]: 48.1 µM
TGI [12]: 43.4 µM
TGI [13]: > 100 µM
TGI [14]: 29.7 µM
TGI [15]: > 100 µM
TGI [16]: > 100 µM
TGI [18]: > 100 µM
TGI [19]: > 100 µM
TGI [20]: > 100 µM
TGI [21]: 37.8 µM
TGI [22]: > 100 µM
TGI [23]: 80.4 µM
TGI [24]: > 100 µM
TGI [25]: > 100 µM
TGI [26]: > 100 µM
TGI [27]: > 100 µM
TGI [28]: 53.8 µM
TGI [29]: 59.4 µM
TGI [30]: 33.7 µM
TGI [31]: 35.1 µM
TGI [32]: 47.2 µM
TGI [33]: > 100 µM
TGI [35]: 80.8 µM
TGI [36]: 48 µM
TGI [37]: > 100 µM
TGI [38]: 47.3 µM
TGI [39]: > 100 µM
TGI [40]: > 100 µM
TGI [41]: 38.8 µM
TGI [42]: 71.7 µM
TGI [43]: > 100 µM
TGI [44]: 45.4 µM
TGI [45]: 40.1 µM
TGI [47]: > 100 µM
TGI [48]: > 100 µM
TGI [49]: 32 µM
TGI [50]: > 100 µM
TGI [51]: > 100 µM
TGI [52]: 73.4 µM
TGI [53]: > 100 µM
TGI [54]: > 100 µM
TGI [55]: 36.3 µM
TGI [56]: 45.2 µM
TGI [57]: > 100 µM
TGI [58]: > 100 µM

CC(C)C[C@H](NC(=O)[C@H](Cc1ccc(F)cc1)NC(=O)c1ccccn1)B(O)O
TGI [2]: < 0.01 µM
TGI [59]: > 100 µM
TGI [3]: > 100 µM
TGI [4]: < 0.01 µM
TGI [5]: < 0.01 µM
TGI [6]: < 0.01 µM
TGI [7]: < 0.01 µM
TGI [8]: < 0.0107 µM
TGI [9]: < 0.0326 µM
TGI [10]: < 0.01 µM
TGI [11]: 0.0504 µM
TGI [12]: 1.12 µM
TGI [13]: 0.0933 µM
TGI [14]: < 0.01 µM
TGI [15]: < 0.01 µM
TGI [16]: < 0.01 µM
TGI [17]: < 0.01 µM
TGI [18]: > 100 µM
TGI [19]: 1.07 µM
TGI [20]: < 0.01 µM
TGI [21]: < 0.01 µM
TGI [22]: 0.165 µM
TGI [23]: < 0.01 µM
TGI [24]: > 33.4 µM
TGI [25]: < 0.01 µM
TGI [27]: < 0.01 µM
TGI [28]: < 0.01 µM
TGI [29]: < 0.0124 µM
TGI [30]: < 0.01 µM
TGI [31]: < 0.01 µM
TGI [32]: < 0.01 µM
TGI [33]: < 0.01 µM
TGI [34]: < 0.01 µM
TGI [35]: 0.0465 µM
TGI [36]: < 0.01 µM
TGI [37]: < 0.01 µM
TGI [38]: < 0.01 µM
TGI [39]: 0.106 µM
TGI [40]: < 0.01 µM
TGI [41]: < 0.01 µM
TGI [42]: < 0.01 µM
TGI [43]: < 0.0121 µM
TGI [44]: < 0.01 µM
TGI [45]: < 0.01 µM
TGI [46]: 0.0193 µM
TGI [47]: < 0.01 µM
TGI [48]: 0.166 µM
TGI [49]: < 0.01 µM
TGI [50]: < 0.01 µM
TGI [51]: < 0.01 µM
TGI [52]: < 0.01 µM
TGI [53]: < 0.01 µM
TGI [54]: > 100 µM
TGI [55]: < 0.01 µM
TGI [57]: > 100 µM
TGI [58]: 0.0212 µM

C/C(=N\NC(=S)SCc1ccccc1)c1ccccn1
TGI [1]: 30.2 µM
TGI [59]: 1.04 µM
TGI [4]: 5.96 µM
TGI [5]: 14.2 µM
TGI [6]: 16.1 µM
TGI [7]: 15.2 µM
TGI [8]: 6.44 µM
TGI [9]: 1.52 µM
TGI [10]: 13.7 µM
TGI [11]: 10.6 µM
TGI [12]: 0.464 µM
TGI [13]: < 0.01 µM
TGI [14]: 5.56 µM
TGI [15]: 9.71 µM
TGI [16]: 2.49 µM
TGI [17]: 11.4 µM
TGI [18]: < 0.01 µM
TGI [20]: 0.326 µM
TGI [21]: 2.79 µM
TGI [22]: 20.5 µM
TGI [24]: 18.3 µM
TGI [25]: 1.62 µM
TGI [26]: 8.73 µM
TGI [27]: 3.03 µM
TGI [28]: 9.56 µM
TGI [29]: 4.93 µM
TGI [31]: 4.69 µM
TGI [32]: 10.2 µM
TGI [33]: 18.3 µM
TGI [34]: 9.26 µM
TGI [35]: 1.95 µM
TGI [36]: 15.6 µM
TGI [37]: 1.77 µM
TGI [38]: 23.8 µM
TGI [39]: 13.3 µM
TGI [40]: 1.42 µM
TGI [41]: > 42.6 µM
TGI [42]: 15.3 µM
TGI [43]: 26.3 µM
TGI [44]: 3.13 µM
TGI [45]: 4.08 µM
TGI [46]: 13.5 µM
TGI [47]: 12.1 µM
TGI [48]: < 0.01 µM
TGI [49]: 7.4 µM
TGI [50]: 6.07 µM
TGI [51]: 2.14 µM
TGI [52]: 9.31 µM
TGI [53]: 9.86 µM
TGI [54]: 2.95 µM
TGI [55]: 11.6 µM
TGI [56]: 16.9 µM
TGI [57]: 1.97 µM
TGI [58]: < 0.0332 µM
